From patent US20220226337A1 (Gilead Sciences, Inc., priority 2018, published 2022) come the findings set out here.

The target of this assay is T1, α4β7 integrin interaction with MadCAM-1 (RPMI8866 cells) (Homo sapiens, UniProt P13612+P26010).
T1 construct: α4β7 integrin expressing cells; endogenous in cells; host or cells: RPMI8866 cells
T1 sequence (P13612 34-1032): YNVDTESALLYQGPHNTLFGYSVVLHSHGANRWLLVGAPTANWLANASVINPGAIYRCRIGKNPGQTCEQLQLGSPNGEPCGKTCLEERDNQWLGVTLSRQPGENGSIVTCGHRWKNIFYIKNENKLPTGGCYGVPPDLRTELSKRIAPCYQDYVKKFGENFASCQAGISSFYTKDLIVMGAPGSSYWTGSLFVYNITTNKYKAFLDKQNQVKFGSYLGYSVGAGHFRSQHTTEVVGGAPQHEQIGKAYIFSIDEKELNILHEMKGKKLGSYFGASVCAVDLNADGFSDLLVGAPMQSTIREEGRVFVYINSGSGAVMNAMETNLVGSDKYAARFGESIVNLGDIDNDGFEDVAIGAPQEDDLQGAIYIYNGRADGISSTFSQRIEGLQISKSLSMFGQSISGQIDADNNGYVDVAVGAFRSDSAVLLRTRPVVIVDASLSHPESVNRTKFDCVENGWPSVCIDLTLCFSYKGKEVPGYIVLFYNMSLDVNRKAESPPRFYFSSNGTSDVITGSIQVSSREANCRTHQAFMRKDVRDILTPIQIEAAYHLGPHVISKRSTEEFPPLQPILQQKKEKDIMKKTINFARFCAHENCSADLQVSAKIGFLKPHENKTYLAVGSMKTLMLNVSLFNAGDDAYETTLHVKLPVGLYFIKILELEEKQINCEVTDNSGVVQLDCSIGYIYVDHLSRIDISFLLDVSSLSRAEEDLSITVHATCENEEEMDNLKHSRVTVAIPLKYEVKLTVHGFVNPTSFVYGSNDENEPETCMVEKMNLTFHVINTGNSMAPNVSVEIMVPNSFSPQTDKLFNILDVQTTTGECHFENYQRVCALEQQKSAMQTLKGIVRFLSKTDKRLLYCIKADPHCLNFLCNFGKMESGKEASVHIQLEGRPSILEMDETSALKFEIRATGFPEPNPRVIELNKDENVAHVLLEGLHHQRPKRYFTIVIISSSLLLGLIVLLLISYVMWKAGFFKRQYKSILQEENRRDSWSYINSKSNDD
T1 sequence (P26010 20-798): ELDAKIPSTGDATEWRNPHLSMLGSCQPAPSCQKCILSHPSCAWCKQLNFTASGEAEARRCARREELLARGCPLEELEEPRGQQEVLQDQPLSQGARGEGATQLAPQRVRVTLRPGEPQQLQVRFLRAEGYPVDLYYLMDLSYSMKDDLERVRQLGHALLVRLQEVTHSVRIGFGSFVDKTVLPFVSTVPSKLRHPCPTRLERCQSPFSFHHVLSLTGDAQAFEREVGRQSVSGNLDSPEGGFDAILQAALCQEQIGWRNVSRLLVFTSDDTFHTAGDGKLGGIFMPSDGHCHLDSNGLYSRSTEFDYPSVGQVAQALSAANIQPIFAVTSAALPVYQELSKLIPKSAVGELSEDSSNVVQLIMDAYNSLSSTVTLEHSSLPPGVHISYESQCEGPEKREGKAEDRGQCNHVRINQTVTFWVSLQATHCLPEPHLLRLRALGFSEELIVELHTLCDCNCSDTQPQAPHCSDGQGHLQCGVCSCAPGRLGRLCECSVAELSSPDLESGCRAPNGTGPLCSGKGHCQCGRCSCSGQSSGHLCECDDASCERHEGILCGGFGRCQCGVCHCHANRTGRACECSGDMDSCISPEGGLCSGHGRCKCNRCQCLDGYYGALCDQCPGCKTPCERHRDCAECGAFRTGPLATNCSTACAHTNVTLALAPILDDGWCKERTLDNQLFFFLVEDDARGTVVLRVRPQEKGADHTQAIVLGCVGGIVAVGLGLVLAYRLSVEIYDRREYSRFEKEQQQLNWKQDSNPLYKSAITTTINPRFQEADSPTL
Nature of the assay: α4β7 Integrin Cell Capture Assay. The following applies: capture of α4β7 integrin expressing RPMI8866 cells on recombinant MadCAM-1 extracellular domain-coated plate; 0.5 mM MnCl2. It is filed as cell-based. The method in brief: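 RPMI8866 cells (0.5×10^6 cells/mL in DMEM + 0.5% FBS + 0.5 mM MnCl2) preincubated with compound 1 h at 37 °C, then allowed to adhere 30 min at 37 °C to plates coated with MAdCAM-1 extracellular domain (1.0 μg/mL). Bound cells fixed with 2% glutaraldehyde, Hoechst-stained, imaged and counted; EC50 from cell count versus concentration.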

One may read the EC50 as the concentration needed to bring the measured effect to its halfway point.

Regarding `Cc1nc(-c2ccc(C[C@H](NC(=O)c3c(F)cc(N4CCOC[C@@H]4C(F)(F)F)cc3F)C(=O)O)c3c2OCCC3)c(=O)n(C)c1C` [Example 108, (S)-2-(2,6-difluoro-4-((R)-3-(trifluoromethyl)morpholino)benzamido)-3-(8-(4,5,6-trimethyl-3-oxo-3,4-dihydropyrazin-2-yl)chroman-5-yl)propanoic acid], the EC50 was 0.26 nM.
